The numbers were not newly measured in patent publication US20260374745A1, “METHODS FOR PRODUCING AROMATIC THIAZINES OR SELENAZINES” (Universität Heidelberg, priority 2023, published 2026), which cites them from elsewhere.

The subject of data set [1] is 3-deoxy-d-manno-octulosonic acid 8-phosphate (KDO 8-P) synthase. The conditions noted are these: role: inhibitor; Birck et al., J. Am. Chem. Soc. 2000, 122, 9334-9335.
The subject of a further data set is HIV. As to conditions: Mizuhara et al., Org. Biomol. Chem. 2012, 10, 6792-6802.

On to `N=C1Sc2ccccc2C2=NCCCN12` [PD 404182], for which the “3-deoxy-d-manno-octulosonic acid 8-phosphate (KDO 8-P) synthase inhibitor” value in data set [1] was “inhibitor”. In the data set with HIV, the anti-HIV activities result is given as “potent”.
